Tests used:
IL-6 = IL-6 production in BMDCs, intracellular staining, flow cytometry; assay type: cell-based, mouse; settings: indole 24 hours (overnight), LPS 1 ug/ml 4 hours
Description: Briefly, bone marrow was harvested from femurs of mice and cultured for 7 days in the presence of DC-skewing cytokines, GM-CSF and IL-4. […] The pro-inflammatory cytokines, IL-6 and IL-12, were specifically queried. […] Immune cells communicate largely through the production of soluble factors including cytokines, and DCs detect these signals and determine their effector functions accordingly.

[1] = Pinero-Fernandez et al. 2011; cited from earlier work
IL-12 = IL-12 production in splenic CD11c+ DCs ex vivo; settings: indole overnight, LPS or heat-killed S. typhimurium
Description: Cultures were then stained for CD11c and intracellular TNF, IL-6, and IL-12. Analysis was confined to CD11c+ DCs and maximal cytokine production was normalized to solvent control (DMF).
Production of pro-inflammatory cytokines in CD11c+ DCs was assessed via flow cytometry.
All primary cells were cultured in RPMI 1640 supplemented with 2-mercaptoethanol, gentamicin, penicillin, streptomycin, and 10% FCS (all from Life Technologies). […] Stimulation of dendritic cells at the given concentrations of LPS or heat-killed S. typhimurium were performed for 4 hours (DC2.4 and BMDCs) or 6 hours (primary splenic DCs) in the presence of GolgiPlug protein transport inhibitor (BD Biosciences) to measure cytokine production, or for 24 hours (co-stimulatory markers).

SMILES: c1ccc2[nH]ccc2c1 [Indole, indole]
- inhibition of IL-6 production (IL-6): ≥ 2 fold
- diffusion across membranes [1]: freely diffusible across membranes
- inhibition of IL-12 production (IL-12): ≥ 2 fold
